Tests used:
lipid peroxidation = details: human nonneoplastic lung tissue; cited from earlier work
stroke risk = details: ESPS-2, compared with low-dose aspirin / aspirin alone; cited from earlier work
NO Synthetase = NO Synthetase knock-out mice, NO synthetase activity blocked or partially inhibited; type: in vivo; details: NO Synthetase activity blocked or reduced; compared with pravastatin on elevating NO production
[1] = system: oxygen radicals and proteinuria; details: experimental animals with aminonucleoside nephropathy; cited from earlier work
[2] = system: reoccurrence of myocardial infarcts (MI); details: chronic application, published meta analysis; cited from earlier work

OCCN(CCO)c1nc(N2CCCCC2)c2nc(N(CCO)CCO)nc(N3CCCCC3)c2n1 [Dipyridamole, 2,6-bis(diethanolamino)-4,8-dipiperidino-pyrimido[5,4-d]pyrimidine]
lipid peroxidation (lipid peroxidation): Inhibition of lipid peroxidation | reduction of stroke risk (stroke risk): as effective as low-dose aspirin | effect of NO sparing (preventing NO destruction) (NO Synthetase): seen as independent effect | oxygen radicals and proteinuria [1]: suppress oxygen radicals and proteinuria

CC(=O)Oc1ccccc1C(=O)O [Aspirin, acetyl salicylic acid]
reduction of the incidence of reoccurrence of myocardial infarcts [2]: 18%

From patent publication US20080076786A1, “USE OF RADICAL-SCAVENGING COMPOUNDS FOR TREATMENT AND PREVENTION OF NO-DEPENDENT MICROCIRCULATION DISORDERS” (priority 2001, published 2008)
